Test results reported in patent US20230416205A1, “COMPOUNDS, COMPOSITIONS, AND METHODS” (Denali Therapeutics Inc, priority 2020, published 2023).
Like-named read-outs stand apart in the source and are kept apart here.

System: NLRP3
Assay: IL-1β secretion assay in PMA-differentiated, LPS/nigericin-stimulated THP-1 cells (384-well, ELISA read-out)
Type: cell-based, human
Outline: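 THP-1 cells differentiated with PMA (5 ng/mL, 40 h), primed in serum-free medium with 25 ng/mL LPS for 2 h, treated with compounds 1 h (0.5% DMSO), then stimulated with nigericin for 2 h at 37 °C. Supernatant IL-1β measured by ELISA; responses normalized to LPS+5 μM nigericin and LPS-only controls.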

[1] = Homo sapiens, THP-1, IL-1β secretion, PMA-differentiated THP-1 cells, LPS then nigericin stimulation, ELISA read at 450 nm, read-out: Activity
[2] = Homo sapiens, THP-1, Table 4, IL-1β secretion, LPS/nigericin-stimulated THP-1 cells, read-out: IC50
[3] = Table 4, IL-1β secretion, LPS/nigericin-stimulated THP-1 cells, read-out: IC50

Row | Structure (SMILES) | IC50 [1] [nM] | IC50 [2] [nM] | IC50 [3] [nM] | IC50 (IL-1β secretion, PMA-differentiated THP-1 cells, LPS then nigericin stimulation, ELISA read at 450 nm, read-out: Activity) [nM]
1 | N#Cc1cnc(NC(=O)CN2CC3(CC3)c3c(ccc(Br)c3F)C2=O)c(F)c1 [Example 106, 2-(6-bromo-5-fluoro-1-oxospiro[3H-isoquinoline-4,1′-cyclopropane]-2-yl)-N-(5-cyano-3-fluoropyridin-2-yl)acetamide] | < 10000 | 156 | – | –
2 | N#Cc1cc(F)c(NC(=O)CN2CC3(CC3)c3cc(Br)ccc3C2=O)cn1 [Example 345, 2-(6-bromo-1-oxospiro[3H-isoquinoline-4,1′-cyclopropane]-2-yl)-N-(6-cyano-4-fluoropyridin-3-yl)acetamide] | – | 15100 | – | –
3 | C#Cc1ccc2c(c1F)C1(CC1)CN(CC(=O)Nc1ncc(F)cn1)C2=O [Example 302, 2-(6-ethynyl-5-fluoro-1-oxospiro[3H-isoquinoline-4,1′-cyclopropane]-2-yl)-N-(5-fluoropyrimidin-2-yl)acetamide] | < 10000 | 539 | – | –
4 | CC(C(=O)Nc1ncc(F)cn1)N1CC2(CC2)c2cc(Br)ccc2C1=O (centres unmarked) [Example 339, 2-(6-bromo-1-oxospiro[3H-isoquinoline-4,1′-cyclopropane]-2-yl)-N-(5-fluoropyrimidin-2-yl)propanamide] | – | 8290 | – | –
5 | O=C(CN1C[C@@]2(C[C@@H]2F)c2c(ccc(Cl)c2F)C1=O)Nc1ncc(F)cn1 (single isomer, unassigned) [Example 223, 2-[(2′s,4r)-6-chloro-2′,5-difluoro-1-oxospiro[3H-isoquinoline-4,1′-cyclopropane]-2-yl]-N-(5-fluoropyrimidin-2-yl)acetamide] | < 10000 | 55 | – | –
6 | O=C(CN1C[C@@]2(C[C@@H]2F)c2cc(C(F)(F)F)ccc2C1=O)Nc1ncc(Cl)cn1 (single isomer, unassigned) [Example 238, N-(5-chloropyrimidin-2-yl)-2-[(2′s,4r)-2′-fluoro-1-oxo-6-(trifluoromethyl)spiro[3H-isoquinoline-4,1′-cyclopropane]-2-yl]acetamide] | < 10000 | – | 414 | –
7 | O=C(CN1CC2(CC2)c2cc(Br)ccc2C1=O)N[C@H]1C[C@@H](CO)C1 [Example 64, 2-(6-bromo-1-oxo-spiro[3H-isoquinoline-4,1′-cyclopropane]-2-yl)-N-[cis-3-(hydroxymethyl)cyclobutyl]acetamide] | < 10000 | 6400 | – | –
8 | Cc1cc(NC(=O)CN2CC3(CC3)c3cc(Br)ccc3C2=O)nc2ccnn12 [Example 368, 2-(6-bromo-1-oxospiro[3H-isoquinoline-4,1′-cyclopropane]-2-yl)-N-(7-methylpyrazolo[1,5-a]pyrimidin-5-yl)acetamide] | – | 1600 | – | –
9 | N#Cc1cnc(NC(=O)CN2C[C@@]3(C[C@@H]3F)c3cc(C(F)(F)F)ccc3C2=O)nc1 (single isomer, unassigned) [Example 236, N-(5-cyanopyrimidin-2-yl)-2-[(2′s,4r)-2′-fluoro-1-oxo-6-(trifluoromethyl)spiro[3H-isoquinoline-4,1′-cyclopropane]-2-yl]acetamide] | < 10000 | – | 1120 | –
10 | O=C(CN1CC2(CC2)c2cc(Br)ccc2C1=O)NC1CCN(c2ccc(Cl)nn2)CC1 [Example 165, 2-(6-bromo-1-oxospiro[3H-isoquinoline-4,1′-cyclopropane]-2-yl)-N-[1-(6-chloropyridazin-3-yl)piperidin-4-yl]acetamide] | < 10000 | 1630 | – | –
11 | N#Cc1cnc(NC(=O)CN2C[C@]3(C[C@H]3F)c3cc(C4CC4)ccc3C2=O)nc1 [Example 233] | < 10000 | 45 | – | –
12 | O=C(CN1CC2(CC2)c2cc(Br)ccc2C1=O)Nc1nccn2ccnc12 [Example 351] | – | 4230 | – | –
13 | O=C(CN1CC2(CC2)c2cc(Br)ccc2C1=O)Nc1ncc(C2CCOC2)cn1 (centres unmarked) [Example 258, 2-(6-bromo-1-oxospiro[3H-isoquinoline-4,1′-cyclopropane]-2-yl)-N-[5-(oxolan-3-yl)pyrimidin-2-yl]acetamide] | < 10000 | 526 | – | –
14 | N#Cc1cnc(NC(=O)CN2CC3(CC3)c3cc(C(F)(F)F)ccc3C2=O)c(F)c1 [Example 85, N-(5-cyano-3-fluoropyridin-2-yl)-2-[1-oxo-6-(trifluoromethyl)spiro[3H-isoquinoline-4,1′-cyclopropane]-2-yl]acetamide] | < 10000 | 992 | – | –
15 | O=C(CN1CC(CF)c2cc(Br)ccc2C1=O)Nc1ncc(F)cn1 (single isomer, unassigned) [Example 293, 2-[6-bromo-4-(fluoromethyl)-1-oxo-3,4-dihydroisoquinolin-2-yl]-N-(5-fluoropyrimidin-2-yl)acetamide] | – | – | 134 | < 10000
16 | Cc1cc(C)nc(NC(=O)CN2CC3(CC3)c3cc(Br)ccc3C2=O)c1 [Example 150, 2-(6-bromo-1-oxospiro[3H-isoquinoline-4,1′-cyclopropane]-2-yl)-N-(4,6-dimethylpyridin-2-yl)acetamide] | < 10000 | 2100 | – | –
17 | Cn1ccnc1CNC(=O)CN1CC2(CC2)c2cc(Br)ccc2C1=O [Example 120, 2-(6-bromo-1-oxospiro[3H-isoquinoline-4,1′-cyclopropane]-2-yl)-N-[(1-methylimidazol-2-yl)methyl]acetamide] | > 15000 | 24800 | – | –

Row | Structure (SMILES) | IC50 [1] [nM] | IC50 [2] [nM] | IC50 [3] [nM] | IC50 (IL-1β secretion, PMA-differentiated THP-1 cells, LPS then nigericin stimulation, ELISA read at 450 nm, read-out: Activity) [nM]
18 | Cc1cc(C#N)cnc1NC(=O)CN1CC2(CC2)c2cc(Br)ccc2C1=O [Example 397, 2-(6-bromo-1-oxospiro[3H-isoquinoline-4,1′-cyclopropane]-2-yl)-N-(5-cyano-3-methylpyridin-2-yl)acetamide] | – | 2000 | – | –
19 | O=C(CN1CC2(CC2)c2cc(Br)ccc2C1=O)Nc1ncc(C(F)(F)F)cc1F [Example 9] | < 10000 | 400 | – | –
20 | N#Cc1ccc(NC(=O)CN2CC3(CC3)c3cc(Br)ccc3C2=O)cn1 [Example 414, 2-(6-bromo-1-oxospiro[3H-isoquinoline-4,1′-cyclopropane]-2-yl)-N-(6-cyanopyridin-3-yl)acetamide] | – | 1260 | – | –
21 | O=C(CN1CC2(CC2)c2cc(Br)ccc2C1=O)Nc1nccn2ncnc12 [Example 346, 2-(6-bromo-1-oxospiro[3H-isoquinoline-4,1′-cyclopropane]-2-yl)-N-([1,2,4]triazolo[1,5-a]pyrazin-8-yl)acetamide] | – | 1570 | – | –
22 | Cn1ncnc1NC(=O)CN1CC2(CC2)c2cc(Br)ccc2C1=O [Example 218, 2-(6-bromo-1-oxospiro[3H-isoquinoline-4,1′-cyclopropane]-2-yl)-N-(2-methyl-1,2,4-triazol-3-yl)acetamide] | < 10000 | 9180 | – | –
23 | COc1ccc2c(c1)C1(CC1)CN(CC(=O)Nc1ncccn1)C2=O [Example 91, 2-(6-methoxy-1-oxospiro[3H-isoquinoline-4,1′-cyclopropane]-2-yl)-N-pyrimidin-2-ylacetamide] | < 10000 | 3210 | – | –
24 | C=C(F)c1ccc2c(c1)[C@@]1(C[C@H]1F)CN(CC(=O)Nc1ncc(F)cn1)C2=O [Example 273] | < 10000 | 59 | – | –
25 | O=C(CN1CC2(CC2)c2cc(CC3CC3)ccc2C1=O)Nc1ncc(F)cn1 [Example 423, 2-[6-(cyclopropylmethyl)-1-oxospiro[3H-isoquinoline-4,1′-cyclopropane]-2-yl]-N-(5-fluoropyrimidin-2-yl)acetamide] | – | 18400 | – | –
26 | O=C(CN1C[C@@]2(C[C@@H]2F)c2cc(C(F)(F)F)ccc2C1=O)Nc1ncc(C(F)(F)F)cn1 (single isomer, unassigned) [Example 242, 2-[(2′s,4r)-2′-fluoro-1-oxo-6-(trifluoromethyl)spiro[3H-isoquinoline-4,1′-cyclopropane]-2-yl]-N-[5-(trifluoromethyl)pyrimidin-2-yl]acetamide] | < 10000 | – | 1290 | –
27 | O=C(CN1CC2(CC2)c2cc(Br)ccc2C1=O)Nc1cc2cccnc2cn1 [Example 176, 2-(6-bromo-1-oxospiro[3H-isoquinoline-4,1′-cyclopropane]-2-yl)-N-(1,7-naphthyridin-6-yl)acetamide] | < 10000 | 2950 | – | –
28 | CC1(C)CN(CC(=O)Nc2ncc(F)cn2)C(=O)c2ccc(Br)cc21 [Example 178, 2-(6-bromo-4,4-dimethyl-1-oxo-3H-isoquinolin-2-yl)-N-(5-fluoropyrimidin-2-yl)acetamide] | < 10000 | 1050 | – | –
29 | O=C(CN1CC2(CC2)c2cc(Br)ccc2C1=O)Nc1n[nH]c2ccccc12 [Example 166, 2-(6-bromo-1-oxospiro[3H-isoquinoline-4,1′-cyclopropane]-2-yl)-N-(1H-indazol-3-yl)acetamide] | < 10000 | 4840 | – | –
30 | N#Cc1cnc(NC(=O)CN2CC3(CC3(F)F)c3c(ccc(Br)c3F)C2=O)nc1 (single isomer, unassigned) [Example 320, 2-[6-bromo-1′,1′,5-trifluoro-1-oxospiro[3H-isoquinoline-4,2′-cyclopropane]-2-yl]-N-(5-cyanopyrimidin-2-yl)acetamide] | – | – | 14 | –
31 | O=C(CN1CC2(CC2)c2cc(Br)ccc2C1=O)Nc1ncc2c(n1)COC2 [Example 213, 2-(6-bromo-1-oxospiro[3H-isoquinoline-4,1′-cyclopropane]-2-yl)-N-(5,7-dihydrofuro[3,4-d]pyrimidin-2-yl)acetamide] | < 10000 | 1340 | – | –
32 | O=C(CN1CC2(CC2)c2cc(Br)ccc2C1=O)Nc1ncncc1F [Example 6] | < 10000 | 141 | – | –
33 | O=C(CN1CC2(CC2)c2cc(C(F)(F)F)ccc2C1=O)Nc1ncc(F)cn1 [Example 28] | < 10000 | 373 | – | –
34 | O=C(CN1C[C@]2(C[C@H]2F)c2cc(Br)ccc2C1=O)Nc1ncc(Cl)cn1 [Example 110] | < 10000 | 12 | – | –
